Values quoted from earlier work, collected in patent publication US8653051B2, “Use of 3-alpha-androstanediol in combination with a PDE5 inhibitor, in the treatment of sexual dysfunction” (Emotional Brain B.V., priority 2006, dated 2014).

Conditions: typical value after administration

CCCc1nc(C)c2c(=O)nc(-c3cc(S(=O)(=O)N4CCN(CC)CC4)ccc3OCC)[nH]n12.Cl [vardenafil, piperazine, 1-[[3-(1,4-dihydro-5-methyl-4-oxo-7-propylimidazo[5,1-f][1,2,4]triazin-2-yl)-4-ethoxyphenyl]sulfonyl]-4-ethyl-, monohydrochloride]
time to reach peak plasma concentration after administration: about 1 hour
